Patent EP4389746A2, “P2X3 RECEPTOR ANTAGONISTS” (Recordati Industria Chimica E Farmaceutica SPA, priority 2022, dated 2024)

Tests used:
human P2X3 receptor = target: T1, human P2X3 receptor (Homo sapiens, UniProt P56373); assay: Calcium luminescence measurement: human P2X3 receptor activity inhibition (CHO-K1 cells, photoprotein readout, FLEXSTATION); assay type: cell-based; conditions: CHO-K1 cells co-expressing human P2X3 and Ca2+ sensitive photoprotein; agonist α,β-Met-ATP; read-out: h-P2X3 IC50
T1 construct: expressed in transfected cells; host or cells: CHO-K1
T1 sequence (P56373 1-397): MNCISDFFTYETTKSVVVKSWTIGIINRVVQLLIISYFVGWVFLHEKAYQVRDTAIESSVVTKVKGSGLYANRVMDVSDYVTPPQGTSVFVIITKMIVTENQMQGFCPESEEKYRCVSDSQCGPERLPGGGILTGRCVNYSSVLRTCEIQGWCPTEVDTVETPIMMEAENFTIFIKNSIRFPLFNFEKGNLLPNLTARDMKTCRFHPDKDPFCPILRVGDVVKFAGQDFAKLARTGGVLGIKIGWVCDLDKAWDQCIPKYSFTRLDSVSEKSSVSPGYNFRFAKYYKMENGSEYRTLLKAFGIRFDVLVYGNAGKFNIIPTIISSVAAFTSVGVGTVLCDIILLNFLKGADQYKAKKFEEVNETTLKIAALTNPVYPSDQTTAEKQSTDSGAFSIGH

human P2X2/3 receptor = target: T2, human P2X2/3 receptor (Homo sapiens, UniProt P56373+Q9UBL9); assay: Calcium fluorescence measurement: human P2X2/3 receptor activity inhibition (CHO-K1 cells, Fluo-8 NoWash, […]); assay type: cell-based; conditions: for IC50: CHO-K1 cells expressing human P2RX2/X3 channel, 10µM α,β-Met-ATP, read-out: h-P2X2/3 IC50; for Selectivity: ratio of IC50 of P2X2/3/ P2X3 receptors
T2 construct: expressed in transfected cells; host or cells: CHO-K1
T2 sequence (P56373 1-397): T1 sequence (P56373 1-397)
T2 sequence (Q9UBL9 1-471): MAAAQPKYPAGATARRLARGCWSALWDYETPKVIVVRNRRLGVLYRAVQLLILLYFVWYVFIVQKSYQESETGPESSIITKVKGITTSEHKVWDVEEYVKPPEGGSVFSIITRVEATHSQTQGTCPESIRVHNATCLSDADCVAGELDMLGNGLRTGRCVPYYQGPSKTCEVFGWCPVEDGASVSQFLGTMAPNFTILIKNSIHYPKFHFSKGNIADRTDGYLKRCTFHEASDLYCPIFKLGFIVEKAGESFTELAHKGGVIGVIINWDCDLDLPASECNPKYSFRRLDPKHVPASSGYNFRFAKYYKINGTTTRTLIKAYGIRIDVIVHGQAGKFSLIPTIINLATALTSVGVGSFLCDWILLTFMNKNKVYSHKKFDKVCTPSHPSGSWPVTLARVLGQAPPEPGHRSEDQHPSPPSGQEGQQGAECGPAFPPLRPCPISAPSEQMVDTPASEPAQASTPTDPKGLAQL
Protocol: Determination of human P2X2/3 receptor activity inhibition
The assay for the human P2RX2/X3 has been evaluated by the screening instrumentation using the […] as reader and the FLUO8-NoWash dye as fluorescent readout for calcium detection.
CHO-K1 cells recombinantly expressing the human P2RX2/X3 channel are maintained in DMEM F-12 (1:1) mixture (LONZA cat. n°: BE04-687F/U1) supplemented with 5 mL of 100 mM Sodium Pyruvate (LONZA cat. n° BE13-115E), 25 mL of 7.5% Sodium Bicarbonate (LONZA cat. n° BE17-613E), 6.5 mL of 1M Hepes (LONZA cat. n° BE17-737E), 5 mL of 100X Penicillin/Streptomycin mixture (LONZA cat. n° DE17-602E) and 50 mL of Fetal Bovine Serum (Sigma cat. n° F7524), 5 µg/mL Puromycin dihydrochloride (Sigma cat. n° P9620) and 1 mg/ml G418 disulfate salt (Sigma cat. n° G8168).
Cells were seeded into black-walled clear bottom 384 Multiwell plates at a density of 10.000 cells/well in complete medium. After 24 h the culture medium was replaced with 20 µL/well of Fluo-8 NoWash calcium sensitive dye (AAT Bioquest cat. n° 36316) diluted in Tyrode's buffer (Standard Tyrode's buffer: in house solution, 130 mM NaCl, 5 mM KCl, 2 mM CaCl2, 5 mM NaHCO3, 1 mM MgCl2, 20 mM HEPES, pH 7.4).
The plates were incubated for 1 hours at 37°C and injected with 10 µL/well of test compounds at 3X concentration in Tyrode's buffer with the […]. After 5 minutes a second injection of 15 µL/well of 10µM α,β-Met-ATP in Tyrode's buffer (α,β-Met-ATP: from Tocris cat. n° 3209) was performed and the signal of the emitted fluorescence was recorded by […] (Molecular Devices).
The selectivity is expressed as the ratio of IC50 of P2X2/3/ P2X3 receptors. Table 8: Human P2X3 and h-P2X2/3 receptor antagonist activity for selected compounds of the invention.

C57BL/6J mice = assay: Scratching model: inhibition of ATP induced pruritus in mouse; assay type: in vivo; conditions: dose inhibiting the 35% of number of bouts, intraperitoneally 30 min before α,β-meATP 200 µg/50 µL intradermal, bouts counted for 30 minutes
Protocol: (§1) C57BL/6J mice, Hartley Guinea pigs and Sprague-Dawley Rats from Charles River Italy were used in the experiments. Animals were housed with free access to food and water and maintained on a forced 12 hr light-dark cycle at 22-24°C for at least one week before the experiments were carried out. The animals were handled according to internationally accepted principles for care of laboratory animals (Directive 2010/63/EU of the European Parliament and of the Council of 22 September 2010).
"Scratchng model" - Inhibition of ATP induced pruritus in mouse
Mice were shaved at the rostral back the day before injection. The day of the experiment, an intradermal injection of the irritant agent α,β-meATP 200 µg/50 µL (Sigma, Italy) into the skin was performed. The hind limb scratching behavior directed toward the injection site, was recorded. One bout was defined as the lifting of the hindlimb toward the injection site and then placing the limb back on the floor. The number of bouts were counted for a period of 30 minutes. The Example 22 compound investigated was injected intraperitoneally 30 min before the administration of the irritant agent. (Fig. 2)
In the scratching model the results are presented as mean ± SEM of the values. Statistical analysis was performed using one-way ANOVA and Dunnet's test for multiple comparisons. The ED35 of the tested compounds was determined by linear regression analysis of bouts (Graphpad v5).

Sprague-Dawley Rats = assay: Two bottle taste test in rats: dysgeusia effect of P2X3 antagonists; assay type: in vivo; conditions: rats water fasted overnight; bottles presented 30 minutes after treatment for 15 minutes (Fig. 4)
Protocol: as §1
(Fig 3) "Two bottle taste test" in rats - Dysgeusia effect of P2X3 antagonists
Rats were water fasted overnight. The day of the experiment the animals were treated with tested compounds and 30 minutes later two bottles were presented for 15 minutes, the first one containing water and the second bottle containing Quinine, a substance showing a bitter taste. The volume of liquid drunk in 15 minutes from each bottle was recorded and expressed as percentage of preference (Fig.4). Statistical analysis was performed on absolute values (mean ± SEM) using one-way ANOVA and Tukey's test for multiple comparisons.

IC50 (human P2X3 receptor) [nM] | IC50 (human P2X2/3 receptor) [nM] | Selectivity (human P2X2/3 receptor) | Compound | ED35 (C57BL/6J mice) [mg/kg] | preference between water and Quinine (Sprague-Dawley Rats)
16.6 | > 30000 | >1800 | CC(C)C1C(=O)N=C2c3nnc(N4CCOCC4)cc3N(Cc3ccc(Cl)cc3)C(=O)N21 (stereo not shown) [Example 28, 5-[(4-Chlorophenyl)methyl]-3-(morpholin-4-yl)-8-(propan-2-yl)imidazo[1',2':1,6]pyrimido[5,4-c]pyridazine-6,9(5H,8H)-dione] | 22.54 | –
43 | > 30000 | >697 | CC(=O)N1CCN(c2cnc3c(c2)n(Cc2ccc(Cl)cc2)c(=O)n2c(C(C)(C)C)nnc32)CC1 [Example 34, 8-(4-Acetylpiperazin-1-yl)-3-tert-butyl-6-[(4-chlorophenyl)methyl]pyrido[2,3-e][1,2,4]triazolo[4,3-c]pyrimidin-5(6H)-one] | 12.42 | –
6.73 | 3900 | 582 | CC(C)(C)c1nnc2c3nnc(N4CCOCC4)cc3n(Cc3ccc(Cl)cc3)c(=O)n12 [Example 44, 3-tert-Butyl-6-[(4-chlorophenyl)methyl]-8-(morpholin-4-yl)[1,2,4]triazolo[4',3': 1,6]pyrimido[5,4-c]pyridazin-5(6H)-one] | 9.06 | –
– | – | – | COc1cc(C(C)C)c(Oc2cnc(N)nc2N)cc1S(N)(=O)=O [Gefapixant, reference compound] | – | showed altered taste function and poor preference between water and Quinine bottles
